The text below walks through data of patent US8853227B2, “Methotrexate adjuvants to reduce toxicity and methods for using the same” (Tosk, Incorporated, priority 2008, dated 2014).

For orientation: IC50 means the concentration needed to halve the response being measured.

For data set [1], the target named is human small intestinal UPase enzyme (Homo sapiens (Human), UniProt Q16831). Put plainly: UPase inhibition in human small intestinal tissue homogenate (HPLC of uracil). Format: biochemical. Particulars: 5 mM uridine, 37° C., pH 7.3. As for the experimental part:
A range of TK-112690 doses were studied for the their ability to prevent metabolic breakdown of uridine through the in vitro inhibition of mouse and human small intestinal UPase enzyme. UPase activity was determined by HPLC analysis using UV detection of uracil concentration (UPase catabolizes uridine into uracil and ribose-1-phosphate). The UPase enzyme material was prepared from homogenized mouse and human being small intestinal tissue. TK-112690 was dissolved in water (50 mg/ml) and analyzed for UPase inhibition in aqueous solution containing 5 mM uridine, 0.01 M Tris, 0.01 M phosphate, 1 mM EDTA, and 1 mM DTT. Reactions were performed at 37° C. at pH of 7.3.
[…] inhibition of mouse and human UPase was determined from measurements of uracil determined in homogenates by reverse phase HPLC using UV detection. […]
The aim of this study was to evaluate TK-112690 in vivo as an inhibitor of uridine phosphorylase (UPase) enzyme activity. […] Detection of UPase activity was determined by HPLC analysis using UV detection of uracil concentration (UPase catabolizes uridine into uracil and ribose-1-phosphate).
The UPase enzyme material was prepared from homogenized mouse and human being small intestinal tissue. TK-112690 was dissolved in water (50 mg/ml) and analyzed for UPase inhibition in aqueous solution containing 5 mM uridine, 0.01 M Tris, 0.01 M phosphate, 1 mM EDTA, and 1 mM DTT. […]

The nature of data set [2]: Mouse Study VI (plasma uridine and TK-112690 following TK-112690 treatment). It is filed as in vivo, CD-1 female mice. As for the experimental part: In this study, CD-1 female mice were injected ip with 120 mg/kg TK-112690 and plasma from the animals analyzed by HPLC using UV detection for TK-112690 and uridine. Concentrations of uridine and TK-112690 in plasma samples collected 0.08, 0.50, 1, 2, 4 or 12 hours post TK-112690 injection were determined by HPLC using UV detection. […] An increase in plasma uridine was noted almost immediately following administration of TK-112690. At 0.5 hour post TK-112690 dose, a 100 μg/mL plasma concentration TK-112690 is associated with a plasma uridine concentration of approximately 2 μg/mL of uridine (baseline uridine concentration approximately 0.5 μg/mL). As expected, inhibition of UPase by TK-112690 results in elevation of plasma uridine.
Plasma uridine concentration was determined by HPLC using UV detectionafter animals were treated with TK-112690 as follows. TK-112690 was dissolved in PBS to achieve a concentration of 500 mg/mL. CD-1 female mice were injected ip with a range of TK-112690 doses (0, 15, 30, 60 and 120 mg/kg) and plasma from the animals analyzed for TK-112690 uridine concentrations expected to be elevated through UPase inhibition by TK-112690. Plasma uridine concentrations were determined from plasma samples collected 0.08, 0.50, 1, 2, 4 or 12 hours post TK-112690 injection.
HPLC analysis was done at room temperature using a ThermoFinnigan Spectra System equipped with degasser, pump, autosampler and UV detector. Chromatograms will be constructed from a chart recorder equipped with a pen. […]
The micromolar concentration of plasma uridine was determined by linear equation (y=mx+b) generated from uridine and 5-FU calibration curve. The y value is calculated by taking ratio of peak heights (mm) of uridine and 5-FU. All peak heights from HPLC chromatograms were measured in millimeters using a ruler.
An identical approach was employed to quantitate TK-112690 in the samples except the response for TK-112690 was attenuated by a response factor determined from the injection into the HPLC of identical amounts of TK-112690 and uridine, […]

In the next data set the test system is CCRF-CEM human tumors. Put plainly: Mouse Study IV (xenograft with CCRF-CEM implants). Particulars: MTX 7.5 mg/kg/injection + TK-112690 30 mg/kg ±3 hrs ip; day 27; p=1. It is filed as in vivo, SCID mice. As for the experimental part:
In this study, n=10 SCID mice per dose group were treated with CCRF-CEM human tumors and the tumors allowed to grow to a size of approximately 100 mg. Then the animals were treated by intraperitoneal (ip) injection with either control 20% DMSO/80% PBS (1×/day)×5 days (Group 1), MTX 7.5 mg/kg/injection (1×/day)×5 days (Group 2) or MTX 7.5 mg/kg/inj. (1×/day)×5 days+TK-112690 30 mg/kg/inj.±3 hrs (group 3). The Figure provides tumor sizes in each of the 3 groups on Day 27 of the study.
A xenograft study was performed to analyze the effect of TK-112690. administration on the in vivo efficacy of MTX against a human cancer. Human CCRF-CEM (T-ALL) cells were implanted subcutaneously into SCID mice. Tumor volumes were recorded on a regular basis, and once tumors had become established, treatment was given. […] All treatments were given ip, and TK-112690 was give 3 hours prior to and 3 hours after MTX administration.

human small intestinal UPase enzyme, sequence (Q16831 whole entry): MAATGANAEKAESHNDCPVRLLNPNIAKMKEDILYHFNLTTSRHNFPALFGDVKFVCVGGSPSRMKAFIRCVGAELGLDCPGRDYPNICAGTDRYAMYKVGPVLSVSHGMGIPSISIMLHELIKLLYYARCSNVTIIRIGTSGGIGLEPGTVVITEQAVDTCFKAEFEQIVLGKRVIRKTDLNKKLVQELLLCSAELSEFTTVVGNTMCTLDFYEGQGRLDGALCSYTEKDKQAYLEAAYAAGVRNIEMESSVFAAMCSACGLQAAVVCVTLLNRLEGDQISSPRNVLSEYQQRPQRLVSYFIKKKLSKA

For the compound `Cc1cn2c(nc1=O)O[C@H]1[C@H](O)[C@@H](CO)O[C@H]12` [TK-112690, 2,2′-anhydro-5-methyluridine], the IC50 in data set [1] came out at 20 µM. Further, the “dose dependence of plasma concentrations of TK-112690” value in data set [2] (0, 15, 30, 60 and 120 mg/kg ip) is recorded as “increased with increasing doses”. The plasma uridine concentration result in data set [2] (0.5 hour post TK-112690 dose, at 100 μg/mL plasma TK-112690, baseline approximately 0.5 μg/mL) is on record as “approximately 2 μg/mL”. The compound further registered a concentration at 0.5 h in data set [2] (female, CD-1, plasma, 120 mg/kg, 0.5 hour post TK-112690 dose, ip, mouse) of 100 µg/mL. The “tumor volume, MTX+TK-112690 versus MTX” value in the data set on CCRF-CEM human tumors is on record as “not significantly different”.
